In patent US20190151390A1, “PERILLA EXTRACT COMPOSITION” (INQPHARM GROUP SDN BHD, priority 2016, published 2019):

System: HMC-1 cells
Assay: Mast cell test: histamine release from IgE/anti-IgE stimulated HMC-1 cells, ELISA of supernatant
Format: cell-based
Conditions: for Histamine reduction (%): compared to respective vehicle control; for Histamine (ng/ml) mean ± SD (n = 3): HMC-1 cells, supernatant ELISA
Protocol: Mast cell lines, i.e. HMC1 cells (provided by Dr Joseph H. Butterfield; Mayo Clinic, Rochester, Minn., USA), were cultured in Isocove's Modified Dulbecco's Medium (IMDM) containing 10% Fetal Bovine Seum (FBS), 2 mM L-glutamine, 50 μM 2-mercaptoethanol, 100 U/mL penicillin and 100 μg/mL streptomycin. Cells were maintained at 37° C. in 5% CO2 in a humidified atmosphere. Percentage of living cells was determined by trypan blue staining. A 1:10 dilution with 50 μl cell suspension and 450 μl trypan blue was prepared and the number of living and dead cells was counted in a hemocytometer. 10^6 living cells were transferred into safe-lock Eppendorf tubes. Cell suspensions were centrifuged (200 g, 5 min) and supernatant was discarded. The effect of perilla oil, sesame oil and a combination of perilla oil and sesame oil (1:1 ratio) in the vehicle Kolliphor ELP (polyoxyl-35 hydrogenated castor oil) was determined. The positive control Cromolyn in phosphate buffer saline (PBS), the vehicles PBS and ELP were also tested as controls. After adding 100 μl IgE (100 ng/ml in PBS or ELP) to the cell pellets, cells were incubated for 12 hours over night, at 37° C. Cells were then incubated for 2 hours, at 37° C. with two different concentrations of compounds, i.e. 250 μg/ml and 500 μg/ml. After centrifugation (200 g, 5 min) supernatant was discarded and cell pellet was again incubated for 1 hour, at 37° C. with 100 μl anti-IgE (1 μg/ml in PBS or ELP). For the final incubation time of 6 hours, at 37° C., 300 μl HMC1 media was added. Cells were again centrifuged (200 g, 5 min) and supernatant was collected and stored as 300 μl aliquots at −20° C. for ELISA measurements. Cell pellets were resuspended in 100 μl HMC1 media for determining cell viability. The concentration of histamine in the collected supernatant was determined by ELISA, using a kit obtained from IBL International according to the manufacturer's guidelines. Each sample was measured twice. Due to expected measuring limits, vehicle (PBS, ELP) treated samples were diluted 1:2. Statistical analysis was performed with GraphPad Prism (Version 5.01) software (GraphPad Software Inc., San Diego, Calif., USA) using the unpaired two-tailed Students t test. A P value of less than 0.05 was considered statistically significant.

O=C(O)c1cc(=O)c2c(OCC(O)COc3cccc4oc(C(=O)O)cc(=O)c34)cccc2o1 [Cromolyn]
Histamine reduction (%) compared to averaged histamine release of perilla oil and sesame oil (250 μg/ml): 8.41% | Histamine reduction (%) (250 μg/ml): 57.61% | Histamine reduction (%) compared to averaged histamine release of perilla oil and sesame oil (500 μg/ml): 6.75% | Histamine reduction (%) (500 μg/ml): 55.28% | Histamine (ng/ml) mean ± SD (n = 3) (250 μg/ml): 121.05 ± 0.73 ng/mL | Histamine (ng/ml) mean ± SD (n = 3) (500 μg/ml): 127.70 ± 13.32 ng/mL | Increase of percentage of histamine reduction compared to treatment with individual compounds (range over 250 and 500 μg/ml): 6.8-8.4%
